{"source": "patent US7378519B2", "about": "“Adduct of topiramate and tramadol hydrochloride and uses thereof” (Cilag GmbH International, priority 2002, dated 2008)", "origin": "cited, not measured here", "tested_on": "Chung model of post-nerve constriction injury", "conditions": "each drug alone, as the dose is escalated", "note": "Where a name gives a salt, the structure may show the parent alone.", "data": [{"compound": "COc1cccc(C2(O)CCCCC2CN(C)C)c1", "note": "(single isomer, unassigned) [tramadol hydrochloride, (1R,2R or 1S,2S)-2-[(dimethylamino)methyl]-1-(3-methoxyphenyl)-cyclohexan-1-ol]", "values": [{"measurement": "MPE (Maximum Possible Effect) reached", "result": 100, "unit": "% MPE"}]}, {"compound": "CC1(C)O[C@@H]2[C@@H](CO[C@@]3(COS(N)(=O)=O)OC(C)(C)O[C@@H]23)O1", "note": "[topiramate, 2,3:4,5-bis-O-(1-methylethylidene)-β-D-fructopyranose sulfamate]", "values": [{"measurement": "MPE (Maximum Possible Effect) reached", "result": 100, "unit": "% MPE"}]}]}
